“Also recorded” adds a separate entry of the source.
Legend:
HEK-293 cells [1] = assay: CellTox Green cytotoxicity assay; format: cell-based; conditions: HEK-293, up to 20 μM
Method: (§1) Finally, because the strongest inhibitor identified in vitro compound 23 has a favorable permeability coefficient, its potency to inhibit 17β-HSD10 also at the cellular level was determined. First, it was necessary to exclude the possibility that higher concentrations of compound 23 could be unfavorable to cells. The effects of compound 23 on the cellular viability and cytotoxicity of this compound (1, 10, and 20 μM) were determined using CellTiter-Glo Viability Assay and CellTox Green Assay, respectively, on HEK-293 cell line.
(§2) HEK-293 cells in DMEM (Capricorn) were supplemented with fetal bovine serum (10%, Gibco), L-glutamine (2 mM, Lonza), and nonessential amino acid additives (Gibco). Cells were maintained at 37 °C under a humidified atmosphere of 5% CO2. Compound 23 was tested on the HEK-293 cell line on cell viability using CellTox Green (G8741, Promega) and the CellTiter-Glo 2.0 kit (G9241, Promega), respectively, to establish their cytotoxic effect. Using a Tecan Spark 10 M instrument, the measurements were performed as end point methods in the multiplex. For multiplex measurement, 7500 cells were seeded per well in 50 μL of culture media and cultured for 24 h before the addition of selected compounds. […] Next, the CellTiter-Glo Luminescent Cell Viability Assay with an integration time of 500 ms was determined.

17β-HSD10 = target: T1, 17β-HSD10 (Homo sapiens, UniProt Q99714); assay: Inhibition type determination with respect to substrate 17β-estradiol (Hanes–Woolf plot); format: biochemical; conditions: compound at 3, 6 and 9 μM, 17β-estradiol 12.5–75 μM, NAD+ 500 μM
T1 construct: inferred from Ni-NTA purification with imidazole elution; made in house; host or cells: E. coli BL21 (DE3)
T1 sequence (Q99714 1-261): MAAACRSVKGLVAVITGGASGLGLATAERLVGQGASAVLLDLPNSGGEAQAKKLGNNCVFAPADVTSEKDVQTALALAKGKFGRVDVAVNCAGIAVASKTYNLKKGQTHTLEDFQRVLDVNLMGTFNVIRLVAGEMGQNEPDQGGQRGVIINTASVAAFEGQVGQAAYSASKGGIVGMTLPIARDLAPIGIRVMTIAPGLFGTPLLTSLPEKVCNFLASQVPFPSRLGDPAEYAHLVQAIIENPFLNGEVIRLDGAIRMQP
Method: The uninhibited enzymatic reaction (0 μM 23) was compared with the enzymatic reaction at three concentrations of compound 23 (3, 6, and 9 μM) using 17β-estradiol as the substrate. […] Such inhibitor binds the enzyme preventing the formation of the enzyme–substrate complex. […] This hypothesis was confirmed by the kinetic experiment. The obtained data were linearized by using Hanes–Woolf plot (Figure 2).
The type of inhibition of compound 23 was determined with respect to the substrate 17β-estradiol. The inhibitor was determined at three different concentrations (3, 6, and 9 μM) in combination with different concentrations of 17β-estradiol (12.5–75 μM) and a saturated NAD^+ concentration (500 μM). As vehicle control, DMSO was used. The obtained data were analyzed using GraphPad Prism 8.4.3 (GraphPad Software Inc.). All measurements were performed in triplicate.

HEK-293 cells [2] = assay: CellTiter-Glo luminescent cell viability assay; format: cell-based; conditions: HEK-293, 1, 10 and 20 μM
Method: as §1, §2

[3] = target: T2, 17β-HSD10 overexpressed in HEK-293 (HEK-293-HSD10 cell line) (Homo sapiens, UniProt Q99714); assay: Fluorogenic (−)–CHANA assay for cellular inhibition of 17β-HSD10; format: cell-based; conditions: HEK-293-HSD10, (−)–CHANA probe
T2 construct: expressed in transfected cells; host or cells: HEK-293 (HEK-293-HSD10)
T2 sequence (Q99714 1-261): T1 sequence (Q99714 1-261)
Method: Identical concentrations of compound 23 were used for fluorogenic cellular assay using a special probe (−)–CHANA as a substrate for 17β-HSD10 overexpressed in HEK-293 (HEK-293-HSD10 cell line).[15] […] The exact IC50 value at the cellular level was not possible to determine because of some method interferences, as well as its unknown cytotoxic characteristics. Higher IC50 (>20 μM) is in agreement with the high concentration of 17β-HSD10 in the model cell line.[15]
A previously published cell line with overexpressed 17β-HSD10 (HEK-293-HSD10)[15] was used to measure 17β-HSD10 inhibition in the cellular environment. For this purpose, the (−)–CHANA fluorogenic probe was used. The cells (density 1 × 10^4 cells per well) were seeded in DMEM (200 μL) without phenol red (Gibco). […] The changes in fluorescent intensities were measured immediately after (-)-CHANA addition and 2 h later. The fluorescence intensities of the CHANK product were taken by using the TECAN SPARK 10 M instrument (Ex/Em = 380/525 nm). The residual 17β-HSD10 activity was calculated as ΔF between 2 and 0 h after (-)-CHANA treatment, and the data were normalized between nontreated HEK-293-HSD10 and native, nontransfected HEK-293 controls (using relative response ratio). […]

C[C@@]12CCC[C@H]1[C@@H]1CC=C3C[C@@H](OC(=O)CCCCC(=O)O)CC[C@]3(C)[C@H]1CC2 [Compound 23, Androst-5-en-3β-yl Hemiadipate]
cytotoxicity (CellTox Green) (HEK-293 cells [1]): not cytotoxic; also recorded: not toxic
type of inhibition (17β-HSD10): competitive
cellular viability (CellTiter-Glo) (HEK-293 cells [2]): does not influence HEK-293 viability
inhibition at 25 µM ([3]; HEK293, highest concentration 25 μM, read-out: inhibition of 17β-HSD10 activity in cells): ~50%
IC50 ([3]; exact value not determinable, read-out: IC50 at the cellular level): > 20 µM
